Among the data in patent publication US6605630B1, “Antibiotic oxazolidinone derivatives” (Syngenta Limited, priority 1997, dated 2003) are MIC values, retold here.

One test concerns Bacillus subtilis. The source says:
(§1) The activity is described in terms of the minimum inhibitory concentration (MIC) determined by the agar-dilution technique with an inoculum size of 10^4 CFU/spot.

The test system of test [1] is Staphylococcus aureus Oxford. Here is the method:
as §1
(§2) Staphylococci were tested on agar, using an inoculum of 10^4 CFU/spot and an incubation temperature of 37° C. for 24 hours-standard test conditions for the expression of methicillin resistance.

Test [2] concerns Staphylococcus aureus MRQR. Here is the method:
as §1, §2

The test system of test [3] is Coagulase Negative Staphylococci MS. As to the method: as §1, §2
In test [4] the test system is Staphylococcus aureus Novb. Res. Here is the method: as §1, §2
The test system of test [5] is Coagulase Negative Staphylococci MR. Here is the method:
as §1, §2

The test system of test [6] is Streptococcus pyogenes C203. The following applies: agar with 5% defibrinated horse blood, 10^4 CFU/spot, 37° C., 5% carbon dioxide, 48 hours. As to the method:
as §1
(§3) Streptococci and enterococci were tested on agar supplemented with 5% defibrinated horse blood, an inoculum of 10^4 CFU/spot and an incubation temperature of 37° C. in an atmosphere of 5% carbon dioxide for 48 hours-blood is required for the growth of some of the test organisms.

The next test deals with Enterococcus faecalis. The following applies: agar with 5% defibrinated horse blood, 10^4 CFU/spot, 37° C., 5% carbon dioxide, 48 hours. As to the method: as §1, §3

In general, MIC refers to the lowest concentration found to suppress growth. Low values mean a more susceptible organism, high ones a less susceptible organism. On to “N-((5S)-3-(4-((7aS)[3H,5H]-3-oxo-1,7a-Dihydropyrrolol[1,2c]oxazol-6-yl)phenyl)-2-oxooxazolidin-5-ylmethyl)acetamide [Example 44]”, for which the MIC against Bacillus subtilis amounted to 0.50 µg/mL; in test [1], 0.25 µg/mL; in test [2] it was 2.00 µg/mL; in test [3], 0.13 µg/mL; in test [4] it was 0.50 µg/mL; in test [5], 0.50 µg/mL. Also, the minimal inhibitory concentration (MIC) in test [6] is 0.13 µg/mL; in the test with Enterococcus faecalis, 0.50 µg/mL.
